Source: patent US6093723A, “4-substituted beta-carbolines and analogs thereof” (Boehringer Ingelheim Pharmaceuticals, Inc., priority 1997, dated 2000)
Read-outs that look alike come from different tables or passages of the source.

Columns and labels:
[1] = system: allogeneic cell transplant response (T-cell-mediated immune response, popliteal lymph node); assay: Allogeneic cell transplant response in mice (popliteal lymph node weight); assay type: in vivo, mice (DBA donors, C57B1/6 recipients); settings: 1 mg/kg, dosed one hour prior to cell injection and daily thereafter, ~four days
Excerpt: Allogeneic Cell Transplant Response in Mice
The ability of cells to recognize other cells from self or from another genetically different individual (non-self) is an important property in maintaining the integrity of tissue and organ structure. The allogeneic cell transplant response is therefore an important model for studies of transplant rejection. This T-cell-mediated immune response can be induced in adult mice by the injection of lymphocytes from an histoincompatible mouse strain. This response is characterized by T cell proliferation which is limited to the popliteal lymph node that receives drainage from the footpad area. No in vitro system exists that can exactly duplicate completely this in vivo response. The assay is commonly used to evaluate new and novel potential immunosuppressive molecules.
Experiments are conducted using male or female mice (20-26 grams). Any histoincompatible mouse strains suffice for donor and recipient populations. Typically DBA mice are used as donors and C57B1/6 mice are used as recipients. A minimum of 1 week stabilization and conditioning period is usually required before use of the mice. Each study utilizes approximately 36 recipient mice divided into groups of 6.
Donor mice are sacrificed by CO2 asphyxiation and spleens are removed and a cell suspension is prepared. The cell suspension (1.0×10^7/metatarsal in 0.05 ml) is injected I.D. into the dorsal metatarsal skin of recipient mice. Four days later, the animals are sacrificed by CO2 asphyxiation and the popliteal nodes are removed and weighed. Groups of mice receiving putative immunosuppressive agents are dosed subcutaneously,intraperitoneally or orally one hour prior to cell injection and daily thereafter. The tests last approximately four days. The assay involves no footpad swelling and only a moderate increase in the size of the popliteal lymph node. Student's t test is used to determine significant differences between popliteal lymph nodes of groups of untreated mice and those mice treated with putative immunosuppressive agents.

[2] = system: IL-2 production in CD3+/CD4+ cells; assay: IL-2 production assay, Protocol A (ionomycin and PMA as stimuli); assay type: cell-based; settings: human CD3+/CD4+ cells, ionomycin 1 μg/ml and PMA 10 ng/ml, 16 hr
Experimental: Protocol A (ionomycin and […] as stimuli)
Human peripheral blood is obtained from healthy donors by venipuncture and the mononuclear cell fraction is prepared by centrifugation on Ficoll Hypaque (Phamacia) density gradients. Contaminating red blood cells are lysed and the CD3+/CD4+ cells are purified using immunoaffinity columns (R&D Systems or CellPro). The cells are resuspended and dispensed in 96 well microtiter plates. Test compounds are added to the cells approximately 15 minutes prior to stimulation with ionomycin (1 μg/ml) and PMA (10 ng/ml). The final volume of the assay is 100 μL. Following a 16 hr incubation at 37° C., the cells are pelleted by centrifugation, and the supernatants are collected and stored at -70° C. until assayed for IL-2 using a commercial ELISA kit (Genzyme).

[3] = system: Ca^+2 influx in Jurkat cells (clone E6-1); assay: Calcium influx assay (thapsigargin-stimulated, Fluo-3); assay type: cell-based; settings: Homo sapiens; Jurkat cells clone E6-1, thapsigargin 100 nM, 10 min preincubation
Experimental: Jurkat cells (clone E6-1) are pelleted by centrifugation, washed twice, and resuspended in RPMI 1640 containing, […], 1 % fetal calf serum, 3 μM Fluo-3-AM, 13.5 μl/ml Pluronic F 127 (Molecular Probes) and incubated for 1 hour at 37° C. The loaded cells are washed twice in Hanks Balanced Salt Solution containing 10 mM HEPES. The cells are resuspended in HBSS containing 10 mM HEPES, and dispensed into 96-well Dynatech black microtiter plates at 2×10^5 cells/well. The cells are preincubated with compounds for 10 minutes at room temperature. Baseline fluorescence of unstimulated cells is measured using an SLT fluorescent microtiter plate reader with an excitation wavelength of 495 nm and emission wavelength of 538 nm. Thapsigargin is then added to a final concentration of 100 nM. Following a 5 minute incubation, fluorescence of thapsigargin treated cells is measured. Delta fluorescence values are determined by subtracting baseline fluorescence values from thapsigargin induced fluorescence values.

[4] = system: IL-2 production in T lymphocytes (CD3+/CD4+ cells); assay: IL-2 production assay, Protocol B (antiCD3/antiCD28 as stimuli); assay type: cell-based; settings: T-lymphocyte; human T lymphocytes, anti-CD3/anti-CD28 and goat anti-mouse coated beads, 16 hour
Experimental: Protocol B (antiCD3/antiCD28 as stimuli)
Human peripheral blood is obtained from healthy donors by venipuncture and the mononuclear cell fraction is prepared by centrifugation on Ficoll Hypaque (Phamacia) density gradients. Contaminating red blood cells are lysed and the CD3+/CD4+ cells are purified using immunoaffinity columns (R&D Systems or CellPro). The T lymphocytes are plated at 1-1.5×10^5 cells/well in a 96 well microtiter plate, and incubated with serial dilutions of compounds for 20 minutes at 37° C. The T cells are activated by the addition of 0.6 ng/ml anti-CD3 (Immunotech), 500 ng/ml anti-CD28 (Biodesign) and 2×10^5 goat anti-mouse coated beads (Dynal). The final volume of the assay is 200 μl. Following a 16 hour incubation at 37° C., the cells are pelleted, and the supernatants are removed and collected and stored at -70° C. until assayed for interleukin-2 using a commercial ELISA kit (R&D Systems).

IL-2 promoter = IL-2 promoter assay (luciferase reporter in Jurkat cells); assay type: cell-based; settings: Homo sapiens
Excerpt: All the known regulatory features of IL-2 gene are contained within a ~300 bp sequence immediately upstream of the open reading frame. […] The resulting construct, pIL2P-luc, and a vector containing a neomycin resistance gene, pcDNA/Neo (Invitrogen), are linearized and stably transfected into Jurkat cells (a human T cell line) by electroporation.
For screening compounds, the cells are pelleted by centrifugation, washed once with PBS, resuspended in RPMI (phenol red-free) containing 5% FBS, and dispensed into 96-well, white microtiter plates (Packard) at 50,000 cells/well. The cells are pre-incubated with compounds (1 μg/ml) for 15 min prior to addition of ionomycin (1 μg/ml) and PMA (10 ng/ml) in a final volume of 100 μl. Following a 5 hr incubation at 37° C. in a humidified incubator, 100 μl of Luc-Lite lysis buffer/luciferase assay buffer (Promega) is added and luminescence measured using a Packard TopCount scintillation counter/luminometer.

[5] = Jurkat luciferase reporter cells, ionomycin 1 μg/ml and PMA 10 ng/ml, 5 hr, read-out: IL-2 PROMOTER IC50

SMILES	IC50 [2] [µM]	IC50 [3] [µM]	IC50 [4] [µM]	IC50 (IL-2 promoter; [5]) [µM]	ALLOGENEIC CELL TRANSPLANT % [1] [%]	IC50 (IL-2 promoter; Jurkat, read-out: inhibition of luciferase activity, IC50) [µM]
Cc1ccc(-c2cncc3[nH]c4ccccc4c23)cc1 [Compound 1, 4-(p-Methylphenyl)-β-carboline]	2	0.3	6.2	1.5	38	
c1ccc(-c2cncc3[nH]c4ccccc4c23)cc1 [Compound 2, 4-Phenyl-β-carboline]	14	2.2				
CCCc1cncc2[nH]c3ccccc3c12 [Compound 3, 4-Propyl-β-carboline]	38	17.2	21			
COc1ccc(-c2cncc3[nH]c4ccc(Cl)cc4c23)cc1 [Compound 6]	9.2	14	> 25	3.2		
COc1ccc(-c2cncc3c2c2ccccc2n3C)cc1 [Compound 8]	> 20	2.2	7.4			
Cc1cccc(-c2cncc3[nH]c4ccccc4c23)c1 [Compound 9]	5	1.1	> 25			
COc1ccc(-c2cncc3c2c2ccccc2n3Cc2ccccc2)cc1 [Compound 10]	27	4.6	> 25			
COc1ccccc1-c1cncc2[nH]c3ccccc3c12 [Compound 11]	3	6.4	20			
CCOc1ccc(-c2cncc3[nH]c4ccccc4c23)cc1 [Compound 12]	0.3	1.2	4.5		49	
Clc1ccc(-c2cncc3[nH]c4ccccc4c23)cc1 [Compound 13]	0.8	0.5	8.1			
c1cncc(-c2cncc3[nH]c4ccccc4c23)c1 [Compound 14]	36	29	22			
Cc1ccc(-c2cncc3[nH]c4cccc(C)c4c23)cc1 [Compound 15]		0.9	9			
Cc1ccc(-c2cncc3[nH]c4ccc(C)cc4c23)cc1 [Compound 16]		4.5	> 25			
Cc1ccc(-c2cncc3[nH]c4cc(C)ccc4c23)cc1 [Compound 17]		0.4	4.2			
Cc1ccc(-c2cncc3[nH]c4c(C)cccc4c23)cc1 [Compound 18]		0.7	5.4			
CCOC(=O)c1ccc(-c2cncc3[nH]c4ccccc4c23)cc1 [Compound 19]		3.4	6.3			
CC(C)c1ccc(-c2cncc3[nH]c4ccccc4c23)cc1 [Compound 20]		0.3	1.1			
Oc1ccc(-c2cncc3[nH]c4ccccc4c23)cc1 [Compound 21]		2.9				
COc1ccc2c(c1)[nH]c1cncc(-c3ccc(C)cc3)c12 [Compound 22]		1.7	5.8			
OCc1ccc(-c2cncc3[nH]c4ccccc4c23)cc1 [Compound 23]		15.2				
CN(C)c1ccc(-c2cncc3[nH]c4ccccc4c23)cc1 [Compound 24]		1.6	0.17			
O=C(c1ccccc1)c1ccc(-c2cncc3[nH]c4ccccc4c23)cc1 [Compound 25]		7.7				
C=CC[C@@H]1/C=C(\C)C[C@H](C)C[C@H](OC)[C@H]2O[C@@](O)(C(=O)C(=O)N3CCCC[C@H]3C(=O)O[C@H](/C(C)=C/[C@@H]3CC[C@@H](O)[C@H](OC)C3)[C@H](C)[C@@H](O)CC1=O)[C@H](C)C[C@@H]2OC [FK506, reference compound]						0.0003

The next lines start with results.

IC50 [2] [µM]	IC50 [3] [µM]	IC50 [4] [µM]	IC50 (IL-2 promoter; [5]) [µM]	SMILES	ALLOGENEIC CELL TRANSPLANT % [1] [%]	IC50 (IL-2 promoter; Jurkat, read-out: inhibition of luciferase activity, IC50) [µM]
	2.5	> 25		Cn1c2ccccc2c2c(-c3ccc(C(F)(F)F)cc3)cncc21 [Compound 26]		
	1.3	5.6		COc1ccc(-c2cncc3[nH]c4ccccc4c23)c(OC)c1 [Compound 27]		
	0.7	4.8		COc1cc(OC)cc(-c2cncc3[nH]c4ccccc4c23)c1 [Compound 28]		
	2.7	1.6		COc1ccc(-c2cncc3[nH]c4ccccc4c23)cc1OC [Compound 29]		
	1.7	5.9		Cc1ccc(-c2cncc3[nH]c4ccccc4c23)c(C)c1 [Compound 30]		
	3.3	2.8		COc1cc(-c2cncc3[nH]c4ccccc4c23)cc(OC)c1OC [Compound 31]		
	1.5	8.9		Clc1ccc(-c2cncc3[nH]c4ccccc4c23)cc1Cl [Compound 32]		
	1	5.3		COc1ccc(-c2cncc3[nH]c4ccccc4c23)cc1C [Compound 33]		
	2.4	7.7		Cc1ccc(-c2cncc3[nH]c4cc(CO)ccc4c23)cc1 [Compound 34]		
	0.7			COC(=O)c1ccc2c(c1)[nH]c1cncc(-c3ccc(C)cc3)c12 [Compound 35]		
	3.3	17		COC(=O)c1cccc2c1[nH]c1cncc(-c3ccc(C)cc3)c12 [Compound 36]		
	2.2	> 25		c1ccc(Cc2cncc3[nH]c4ccccc4c23)cc1 [Compound 37]		
	2.2	> 25		c1ccc2c(c1)[nH]c1cncc(C3CCCCC3)c12 [Compound 38]		
	0.7	9.5		Cc1ccc(-c2cncc3[nH]c4ccccc4c23)s1 [Compound 39]		
	14.4	> 25		Cc1ccnc(-c2cncc3[nH]c4ccccc4c23)c1 [Compound 40]		
	17.7	> 25		Cc1cnc(-c2cncc3[nH]c4ccccc4c23)s1 [Compound 41]		
	1.3	2.5		c1ccc2cc(-c3cncc4[nH]c5ccccc5c34)ccc2c1 [Compound 42]		
	> 45	> 25		Cc1noc(-c2cncc3[nH]c4ccccc4c23)n1 [Compound 43]		
	1.3	< 10		CC(C)c1noc(-c2cncc3[nH]c4ccccc4c23)n1 [Compound 44]		
